≈ marks a conversion by molar mass, not a printed value. Counter-ions that a name gives are not always drawn.

Usually MIC50 stands for the lowest concentration that inhibits either 50% of growth or 50% of the strains tested, depending on the study.

The subject of one assay is Helicobacter fells. As to the kind of experiment: in vivo activity against Helicobacter fells in the mouse (elimination rate). Particulars: po, 96 h, administered orally at 3×50 mg/kg over the course of 4 days. The method, then:
With respect to their in vivo activity against Helicobacter fells in the mouse, the compounds of the formula I were investigated following the methodology described by E. Dick-Hegedus and A. Lee (Scand. J. Gastroenterol. 1991, 26, 909-915). The substances were administered orally at 3×50 mg/kg over the course of 4 days. The elimination rates listed in Table A below resulted here for the compounds investigated: […]

In the next assay the test system is Helicobacter pylori. Nature of the assay: activity against Helicobacter pylori (MIC50), Columbia agar, growth period of 4 days. The format is cell-based. Particulars: 96 h, approx. MIC 50 values, Columbia agar (Oxoid). From the text:
The compounds of the formula I were investigated with respect to their activity against Helicobacter pylori following the methodology described by Tomoyuki Iwahi et al. (Antimicrobial Agents and Chemotherapy, 1991, 490-496) using Columbia agar (Oxoid) and with a growth period of 4 days. The approx. MIC 50 values listed in Table A below resulted here for the compounds investigated (the stated numbers of the compounds agree with the example numbers in the description).

`Cc1c(SCCCSc2ccc3ncc([N+](=O)[O-])n3n2)ccnc1CSc1ncccn1` [Compound 4, 6-{3-[3-Methyl-2-(pyrimidin-2-ylsulfanylmethyl)-pyridin-4-ylsulfanyl]propyisulfanyl)3-nitro-imidazo[1,2-b]pyridazine]: in the assay on Helicobacter fells, the responders at 50 mg/kg came to 100%. In the assay with Helicobacter pylori, this molecule had an MIC50 of 0.1 µg/mL (≈ 0.206 µM).
Taken in the same sequence, the figures for `CN(CCSc1ccc2ncc([N+](=O)[O-])n2n1)c1ccnc(CSc2ncccn2)c1Cl` [Compound 18] were 100% and 0.1 µg/mL (≈ 0.205 µM).
Taken in the same sequence, the figures for `Cc1c(SCCCSc2ccc3ncc([N+](=O)[O-])n3n2)ccnc1CO` [Compound 1, {3-Methyl-4-[3-(3-nitroimidazo[1,2-b]pyridazin-6-ylsulfanyl)propylsulfanyl]pyridin-2-yl}methanol] were 100% and 0.05 µg/mL (≈ 0.128 µM).
Taken in the same sequence, the figures for `Cc1c(OCCCOc2ccc3ncc([N+](=O)[O-])n3n2)cc[n+]([O-])c1C` [Compound 13, 6-[3-(2,3-Dimethyl-1-oxypyridin-4-yloxy)propoxy]-3-nitroimidazo[1,2-b]pyridazine] were 100% and 0.5 µg/mL (≈ 1.39 µM).
`Cc1ccnc(SCc2nccc(SCCCSc3ccc4ncc([N+](=O)[O-])n4n3)c2C)n1` [Compound 25, 6-{3-[3-Methyl-2-(4-methyl-pyrimidin-2-ylsulfanylmethyl)-pyridin-4-ylsulfanyl]-propylsulfanyl}-3-nitroimidazo[1,2-b]pyridazine] registered a responders at 50 mg/kg in the assay on Helicobacter fells of 100%. In the assay on Helicobacter pylori, this molecule registered an MIC50 of 0.05 µg/mL (≈ 0.1 µM).
Taken in the same sequence, the figures for `Cc1c(OCCCSc2ccc3ncc([N+](=O)[O-])n3n2)ccnc1CO` [Compound 15, {3-Methyl-4-[3-(3-nitroimidazo[1,2-b]pyridazin-6-ylsulfanyl)propoxy]pyridin-2-yl}-methanol] were 100% and 0.05 µg/mL (≈ 0.133 µM).
`CN(CCOc1ccc2ncc([N+](=O)[O-])n2n1)c1ccnc(CSc2nc3ccccc3[nH]2)c1Cl.Cl` [Compound 27, [2-(1H-benzimidazol-2-ylsulfanylmethyl)-3-chloropyridin-4-yl]-methyl-[2-(3-nitroimidazo[1,2-b]pyridazin-6-yloxy)-ethyl]amine hydrochloride] had a responders at 50 mg/kg in the assay with Helicobacter fells of 100%. For the same molecule, the MIC50 in the assay with Helicobacter pylori worked out at 0.1 µg/mL.
Taken in the same sequence, the figures for `COCCOCCSCc1nccc(SCCCSc2ccc3ncc([N+](=O)[O-])n3n2)c1C` [Compound 9, 6-(3-}2-[2-(2-Methoxyethoxy)ethylsulfanylmethyl]-3-methylpyridin-4-ylsulfanyl}-propylsulfanyl)-3-nitroimidazo[1,2-b]pyridazine fumarate] were 100% and 0.1 µg/mL.
Regarding `CN(CCSc1ccc2ncc([N+](=O)[O-])n2n1)c1ccnc(CSc2nc3ccccc3[nH]2)c1Cl` [Compound 17], in the assay with Helicobacter fells, the responders at 50 mg/kg is 100%. In the assay with Helicobacter pylori, the MIC50 is 0.1 µg/mL (≈ 0.19 µM).

These data come from patent US6043242A, “Imidazopyridazines” (Byk Gulden Lomberg Chemische Fabrik GmbH, priority 1996, dated 2000).
